System: OVCAR-5 complex spheroids with HUVEC/MSC, viability, % test/control
Assay: Anticancer human tumor OVCAR-5 cell line growth inhibition [AhR];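 note: spheroids exposed to compounds for 7 days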;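 for viability, T/C: 100% = DMSO vehicle control wells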
Details: for IC50: curve of first compound; for viability, T/C: stronger effect = lower value
Method in brief: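 Complex tumor spheroids co-cultured with HUVEC and human MSC stroma; AhR antagonists tested in combination with standard-of-care and investigational agents. Top concentration at or near clinical Cmax (else 10 microM), half-log dilutions; growth expressed as percent test/control.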

[1] = second compound 0.1 µM, first compound 0.00949 µM
[2] = second compound 0.1 µM, first compound 0.03 µM
[3] = second compound 0.1 µM, first compound 0.0949 µM
[4] = second compound 0.1 µM, first compound 0.3 µM
[5] = second compound 0.316 µM, first compound 0.00949 µM
[6] = second compound 0.316 µM, first compound 0.03 µM
[7] = second compound 0.316 µM, first compound 0.0949 µM
[8] = second compound 0.316 µM, first compound 0.3 µM
[9] = second compound 1 µM, first compound 0.00949 µM
[10] = second compound 1 µM, first compound 0.03 µM
[11] = second compound 1 µM, first compound 0.0949 µM
[12] = second compound 1 µM, first compound 0.3 µM
[13] = second compound 3.16 µM, first compound 0.00949 µM
[14] = second compound 3.16 µM, first compound 0.03 µM
[15] = second compound 3.16 µM, first compound 0.0949 µM
[16] = second compound 3.16 µM, first compound 0.3 µM
[17] = second compound 10 µM, first compound 0.00949 µM
[18] = second compound 10 µM, first compound 0.03 µM
[19] = second compound 10 µM, first compound 0.0949 µM
[20] = second compound 10 µM, first compound 0.3 µM

CC(C)CC(NC(=O)C(Cc1ccccc1)NC(=O)c1cnccn1)B(O)O (stereo not given) + CC(CO)NC(=O)c1cc(-c2ccc(Cl)cc2)nn(-c2cnn(C)c2)c1=O
IC50 (second compound 0.1 µM): 0.0233 µM | IC50 (second compound 0.316 µM): 0.0238 µM | IC50 (second compound 1 µM): 0.0242 µM | IC50 (second compound 3.16 µM): 0.0221 µM | IC50 (second compound 10 µM): 0.0203 µM | viability, T/C (second compound 0.1 µM, first compound 0.000949 µM): 101% | viability, T/C (second compound 0.1 µM, first compound 0.003 µM): 111% | viability, T/C [1]: 90.8% | viability, T/C [2]: 38.2% | viability, T/C [3]: 18.2% | viability, T/C [4]: 11% | viability, T/C (second compound 0.316 µM, first compound 0.000949 µM): 104% | viability, T/C (second compound 0.316 µM, first compound 0.003 µM): 112% | viability, T/C [5]: 89.6% | viability, T/C [6]: 39.1% | viability, T/C [7]: 20% | viability, T/C [8]: 8.57% | viability, T/C (second compound 1 µM, first compound 0.000949 µM): 107% | viability, T/C (second compound 1 µM, first compound 0.003 µM): 111% | viability, T/C [9]: 95% | viability, T/C [10]: 39.1% | viability, T/C [11]: 20.5% | viability, T/C [12]: 11.5% | viability, T/C (second compound 3.16 µM, first compound 0.000949 µM): 96% | viability, T/C (second compound 3.16 µM, first compound 0.003 µM): 105% | viability, T/C [13]: 87.3% | viability, T/C [14]: 36% | viability, T/C [15]: 20% | viability, T/C [16]: 12.4% | viability, T/C (second compound 10 µM, first compound 0.000949 µM): 88.3% | viability, T/C (second compound 10 µM, first compound 0.003 µM): 97.7% | viability, T/C [17]: 79.4% | viability, T/C [18]: 34.4% | viability, T/C [19]: 22.4% | viability, T/C [20]: 13.7%

CCN(c1cc(-c2ccc(CN3CCOCC3)cc2)cc(C(=O)NCc2c(C)cc(C)[nH]c2=O)c1C)C1CCOCC1 + CC(CO)NC(=O)c1cc(-c2ccc(Cl)cc2)nn(-c2cnn(C)c2)c1=O
IC50 (second compound 0.1 µM): > 3 µM | IC50 (second compound 0.316 µM): > 3 µM | IC50 (second compound 1 µM): > 3 µM | IC50 (second compound 3.16 µM): > 3 µM | IC50 (second compound 10 µM): > 3 µM | viability, T/C [1]: 114% | viability, T/C [2]: 111% | viability, T/C [3]: 111% | viability, T/C [4]: 110% | viability, T/C (second compound 0.1 µM, first compound 0.949 µM): 106% | viability, T/C (second compound 0.1 µM, first compound 3 µM): 109% | viability, T/C [5]: 113% | viability, T/C [6]: 117% | viability, T/C [7]: 114% | viability, T/C [8]: 107% | viability, T/C (second compound 0.316 µM, first compound 0.949 µM): 111% | viability, T/C (second compound 0.316 µM, first compound 3 µM): 110% | viability, T/C [9]: 116% | viability, T/C [10]: 118% | viability, T/C [11]: 119% | viability, T/C [12]: 115% | viability, T/C (second compound 1 µM, first compound 0.949 µM): 113% | viability, T/C (second compound 1 µM, first compound 3 µM): 117% | viability, T/C [13]: 108% | viability, T/C [14]: 113% | viability, T/C [15]: 107% | viability, T/C [16]: 98.8% | viability, T/C (second compound 3.16 µM, first compound 0.949 µM): 91.8% | viability, T/C (second compound 3.16 µM, first compound 3 µM): 97.8% | viability, T/C [17]: 102% | viability, T/C [18]: 106% | viability, T/C [19]: 99% | viability, T/C [20]: 97.7% | viability, T/C (second compound 10 µM, first compound 0.949 µM): 98.1% | viability, T/C (second compound 10 µM, first compound 3 µM): 99.9%

CC1COCCN1c1cc(-c2ccnn2C)c2ccnc(-c3ccn[nH]3)c2n1 (stereo not given) + CC(CO)NC(=O)c1cc(-c2ccc(Cl)cc2)nn(-c2cnn(C)c2)c1=O
IC50 (second compound 0.1 µM): 0.281 µM | IC50 (second compound 0.316 µM): 0.276 µM | IC50 (second compound 1 µM): 0.297 µM | IC50 (second compound 3.16 µM): 0.207 µM | IC50 (second compound 10 µM): 0.0958 µM | viability, T/C (second compound 0.1 µM, first compound 0.00316 µM): 111% | viability, T/C (second compound 0.1 µM, first compound 0.01 µM): 111% | viability, T/C (second compound 0.1 µM, first compound 0.0316 µM): 110% | viability, T/C (second compound 0.1 µM, first compound 0.1 µM): 87% | viability, T/C (second compound 0.1 µM, first compound 0.316 µM): 46.2% | viability, T/C (second compound 0.1 µM, first compound 1 µM): 30.8% | viability, T/C (second compound 0.316 µM, first compound 0.00316 µM): 111% | viability, T/C (second compound 0.316 µM, first compound 0.01 µM): 113% | viability, T/C (second compound 0.316 µM, first compound 0.0316 µM): 109% | viability, T/C (second compound 0.316 µM, first compound 0.1 µM): 87% | viability, T/C (second compound 0.316 µM, first compound 0.316 µM): 45.1% | viability, T/C (second compound 0.316 µM, first compound 1 µM): 32.1% | viability, T/C (second compound 1 µM, first compound 0.00316 µM): 119% | viability, T/C (second compound 1 µM, first compound 0.01 µM): 121% | viability, T/C (second compound 1 µM, first compound 0.0316 µM): 118% | viability, T/C (second compound 1 µM, first compound 0.1 µM): 89% | viability, T/C (second compound 1 µM, first compound 0.316 µM): 48.6% | viability, T/C (second compound 1 µM, first compound 1 µM): 35.4% | viability, T/C (second compound 3.16 µM, first compound 0.00316 µM): 106% | viability, T/C (second compound 3.16 µM, first compound 0.01 µM): 115% | viability, T/C (second compound 3.16 µM, first compound 0.0316 µM): 102% | viability, T/C (second compound 3.16 µM, first compound 0.1 µM): 67.6% | viability, T/C (second compound 3.16 µM, first compound 0.316 µM): 40.3% | viability, T/C (second compound 3.16 µM, first compound 1 µM): 35% | viability, T/C (second compound 10 µM, first compound 0.00316 µM): 99.7% | viability, T/C (second compound 10 µM, first compound 0.01 µM): 103% | viability, T/C (second compound 10 µM, first compound 0.0316 µM): 83.9% | viability, T/C (second compound 10 µM, first compound 0.1 µM): 49% | viability, T/C (second compound 10 µM, first compound 0.316 µM): 35.5% | viability, T/C (second compound 10 µM, first compound 1 µM): 33.5%
